Here are results for two molecules from patent US20050143450A1, “Alkyl PCDF as a treatment for prostate cancer” (priority 2002, published 2005).

Where two headings read alike, the source gives them in different places.

In one assay the test system is 22Rv1 cells. The experiment in a line: Growth inhibition of 22Rv1 prostate cancer cells. It is filed as cell-based. The procedure: 22Rv1 cells were treated with various concentrations of TCDD.
In a second study, 22Rv1 cells were maintained in 10% serum, and various concentrations of 6-MCDF were added to the cells.

For another assay, the system named is LNCaP cells. It is filed as cell-based, human. As to conditions: six days; for growth of LNCaP cells in the presence of DHT: 10 nM DHT; for proliferation of LNCaP cells: absence of DHT, TCDD 1-100 nM. The method, then:
After trypsinization and low-speed centrifugation, LNCaP cells were resuspended and counted using a Coulter cell counter (Beckman Coulter, Fullerton, Calif.). Cells were seeded at a density of 5×10^4/35-mm well using DME-F12 without phenol red, supplemented with 2.5% charcoal-stripped fetal bovine serum (FBS). Twenty-four hours after seeding, initial treatment was applied and then subsequently reapplied with fresh medium every two days until harvesting by trypsinization. Cells were counted after harvesting using a Coulter counter.

For assay [1], the target named is T1, AR (Homo sapiens, UniProt P10275, T878A).
T1 construct: AR protein levels in whole cell lysates were determined by Western blot analysis; endogenous in cells; host or cells: LNCaP
T1 sequence (P10275 1-920 T878A): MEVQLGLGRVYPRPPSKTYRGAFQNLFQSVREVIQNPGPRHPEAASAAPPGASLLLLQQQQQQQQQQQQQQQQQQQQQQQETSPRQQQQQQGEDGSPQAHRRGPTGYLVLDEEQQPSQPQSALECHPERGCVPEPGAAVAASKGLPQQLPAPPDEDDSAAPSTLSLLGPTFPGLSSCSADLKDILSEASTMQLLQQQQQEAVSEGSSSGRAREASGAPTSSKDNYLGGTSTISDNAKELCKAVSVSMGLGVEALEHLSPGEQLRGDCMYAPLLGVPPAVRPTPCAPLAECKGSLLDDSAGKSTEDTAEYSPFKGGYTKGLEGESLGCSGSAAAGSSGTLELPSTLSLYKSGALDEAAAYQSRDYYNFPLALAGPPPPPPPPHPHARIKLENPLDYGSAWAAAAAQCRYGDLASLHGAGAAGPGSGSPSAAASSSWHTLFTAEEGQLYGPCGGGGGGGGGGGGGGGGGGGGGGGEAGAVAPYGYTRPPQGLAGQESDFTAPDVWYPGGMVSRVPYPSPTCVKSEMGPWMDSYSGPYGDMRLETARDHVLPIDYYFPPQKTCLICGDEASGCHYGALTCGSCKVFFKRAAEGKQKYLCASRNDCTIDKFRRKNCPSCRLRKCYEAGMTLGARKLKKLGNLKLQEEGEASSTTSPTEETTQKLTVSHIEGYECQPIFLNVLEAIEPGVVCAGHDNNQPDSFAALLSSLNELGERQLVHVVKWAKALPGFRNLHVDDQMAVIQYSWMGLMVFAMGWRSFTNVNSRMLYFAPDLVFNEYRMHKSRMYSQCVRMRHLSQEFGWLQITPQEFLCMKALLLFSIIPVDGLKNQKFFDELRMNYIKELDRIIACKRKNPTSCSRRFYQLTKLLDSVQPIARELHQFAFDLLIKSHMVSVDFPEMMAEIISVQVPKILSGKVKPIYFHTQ
Type of assay: cell-based. To be noted: LNCaP, pPB; for effect on E2-induced luciferase activity: cotreatment with 10 nM E2. The method, then:
(§1) After 24 h, cells were transfected using Lipofectamine and Plus reagents (Invitrogen) according to manufacturer's instructions. LNCaP and ZR-75 cells were transfected with 500 ng/well of either reporter plasmid, and 250 ng/well of pcDNA3.1-β-gal (Invitrogen) as the internal control. In addition, ZR-75 cells were transfected with 500 ng hAR. Twenty-four hours after treatment, cells were harvested by scraping with 200 μL/well of reporter lysis buffer. Lysates were centrifuged at 40,000 g and luciferase and β-galactosidase activity was assayed with 30 μL of the supernatant extract per sample using a Lumicount luminometer (PerkinElmer, Boston, Mass.). Luciferase activity was normalized to β-galactosidase activity for each transfection well.
The transfected cells were then treated with hormone or AhR agonist alone or in combination and luciferase activity was determined as described in the above examples.

The target in assay [2] is T1, AR. It is filed as cell-based. To be noted: LNCaP; for effect on DHT-induced luciferase activity: pARR3, cotreatment with DHT; for effect on E2-induced luciferase activity: pARR3, cotreatment with E2. The method, then: as §1
Next, LNCaP cells were transfected with pARR3 construct that contained three tandem (3) copies of the probasin androgen response element. The transfected cells were treated with hormone or AhR agonist alone or in combination and luciferase activity was determined as described in the above examples.

The test system of assay [3] is AR. The experiment in a line: AR protein levels in LNCaP cells by Western blot. It is filed as cell-based, human. As to conditions: 6 h; for AR protein levels, compound alone: DHT 10 nM, E2 10 nM, TCDD 10 nM, 6-MCDF 2 μM, HPTE 10 μM. The procedure:
Cells were harvested 6 h after treatment using 200 μL/22-mm well of ice cold lysis buffer (50 mM HEPES, pH 7.5, 500 mM NaCl, 10% (v/v) glycerol, 1% (v/v) Triton-X 100, 1.5 mM MgCl2, 1 mM EGTA) (McDougal et al., 2001). Lysates were centrifuged at 40,000 g, and supernatant was collected as extract. Whole cell extracts (50 μg/sample) were separated by electrophoresis on a tiered 7.5% (top)/12.5% (bottom) SDS-polyacrylamide gel and transferred to PVDF membrane (Bio-Rad, Richmond, Calif.). The membrane was blocked with 5% milk (m/v) in tris-buffered saline 0.05% Tween (TBST). Membranes were incubated with primary antibodies for AR (sc-7305), cyclin D1 (sc-718), or p27 (sc-528) (each from Santa Cruz Biotechnology, Santa Cruz, Calif.) at 1:1000 in 5% milk/TBST for 3 h. Membranes were washed twice in TBST. Horseradish peroxidase (HRP)-conjugated secondary antibodies were applied at 1:5000 in 5% milk/TBST for 1 h. After two TBST washes, PVDF-bounded antibodies were detected using a chemiluminescence kit (Western Lightning, PerkinElmer), ImageTek-H film (American X-Ray and Medical Supply, Rancho Cordova, Calif.) and an autoprocessor (Hope Macro-Med, Warminster, Pa.). Quantitation of the Western blot was performed using a Sharp JX-330 scanner (Sharp, Mahwah, N.J.) and Zero-D software (Scanalytics, Billerica, Mass.).
For orientation: A western blot detects proteins with antibodies after separation by electrophoresis.

As to `Clc1cc2c(cc1Cl)Oc1cc(Cl)c(Cl)cc1O2` [TCDD, 2,3,7,8-tetrachloro-p-dioxin], the “testosterone-induced growth of 22Rv1 cells” value in the assay with 22Rv1 cells (1 nM) is “inhibited”. Further, in the assay on 22Rv1 cells (1 nM alone), the “constitutive growth of 22Rv1 cells” value is on record as “inhibited”. Also, in the assay on LNCaP cells, the “growth of LNCaP cells in the presence of DHT” value is on record as “inhibited growth” and the “proliferation of LNCaP cells” value is listed as “significantly inhibited”. At AR [1] (cotreatment with 10 nM DHT, MCDF 2 μM, HPTE 10 μM), the “effect on DHT-induced luciferase activity” value is “significantly inhibited”. The “effect on E2-induced luciferase activity” value at AR [1] (HPTE 10 μM) is recorded as “significantly decreased”. The “induction of luciferase activity by AhR agonist alone” value at AR [1] (MCDF 2 μM) is given as “did not significantly induce activity”. Further, on AR [2], the “effect on DHT-induced luciferase activity” value is “did not decrease” and the “effect on E2-induced luciferase activity” value was “not a significant decrease”. Moreover, in the assay with AR [3], the “AR levels in combination with DHT compared to DHT alone” value is on record as “significant decrease”; the “AR levels in combination with E2 compared to E2 alone” value is on record as “decreased”; the “AR protein levels, compound alone” value is reported as “did not significantly affect”.
In the case of `Cc1cc(Cl)cc2c1oc1cc(Cl)cc(Cl)c12` [6-MCDF, 6-methyl-1,3,8-trichlorodibenzofuran], the 22Rv1 cell proliferation entry with 22Rv1 cells (cells maintained in 10% serum, various concentrations) is reported as “concentration-dependent decrease”. Moreover, in the assay with LNCaP cells, the “growth of LNCaP cells in the presence of DHT” value is “inhibited growth” and the “proliferation of LNCaP cells” value is listed as “growth inhibition was also observed”. Besides, the “effect on E2-induced luciferase activity” value on AR [1] (HPTE 10 μM) is recorded as “significantly decreased”. Further, the “induction of luciferase activity by AhR agonist alone” value on AR [1] (MCDF 2 μM) is listed as “did not significantly induce activity”. In addition, at AR [2], the “effect on DHT-induced luciferase activity” value is “did not decrease” and the “effect on E2-induced luciferase activity” value is “not a significant decrease”. Also, in the assay with AR [3], the “AR levels in combination with DHT compared to DHT alone” value is listed as “significant decrease” and the “AR protein levels, compound alone” value is “did not significantly affect”.
